One experiment has as its system neutrophils. The experiment in a line: ANCA stimulated neutrophil degranulation (MPO release, ELISA). In kind it is cell-based. Particulars: Homo sapiens, 0.5 h, TNFα primed, MPO release over 30 minute period (FIG. 10), read-out: IC50 of inhibition of ANCA stimulated neutrophil degranulation. How it is done:
FIG. 10 Inhibition of ANCA induced neutrophil degranulation by compound 10. Neutrophils were cultured at 2×10^6 cells/ml in RPMI1640 medium containing human serum antibiotics and 20 ng/ml TNFα for 10 minutes prior to addition of ANCA (1=MPO ANCA; 2=PR3 ANCA) and a range of concentrations of compound 10. Release of MPO was monitored after a 30 minute period by ELISA.
ANCA are predominantly IgG autoantibodies directed against constituents of primary granules of neutrophils (PR3 and MPO). ANCA associated vasculitis is the most common primary systemic small-vessel vasculitis in adults. […] Neutrophils were cultured for 10 hours in RPMI1640 medium containing 2% human AB serum, 2 mM L-glutamine and antibiotics (100 U/ml penicillin, […] streptomycin) and their apoptosis determined by staining with Giemsa stain and observing an apoptotic morphology by light microscopy. […] The ability of compound 10 to inhibit ANCA-induced neutrophil inflammatory functions was also determined Neutrophils were cultured in RPMI1640 medium containing 2% human AB serum, 2 mM L-glutamine and antibiotics (100 U/ml penicillin, […] streptomycin). […] ANCA stimulated degranulation of neutrophils was assessed by release of myeloperoxidase in to the medium over a 30 minute period, with MPO measured by ELISA. […] HUVEC viability was determined by trypan blue staining and light microscopy.
(In general: An ELISA detects its analyte on a solid surface through an enzyme-linked reagent.)

The subject of experiment [1] is human myeloid leukemia K-562. The experiment in a line: In vitro cytotoxicity, Calcein AM assay, K-562. It counts as cell-based. The conditions noted are these: Homo sapiens, K562, 72 hours. The text has this: Low cytotoxicity of the compounds is the major property determining the cosmetic use. One of the parameters used, as the basis for cytotoxicity assays, is the metabolic activity of viable cells. For example, a microtiter assay, which uses the Calcein AM, is now widely used to quantitate cell proliferation and cytotoxicity. For instance, this assay is used in drug screening programs and in chemosensitivity testing. Because only metabolically active cells cleave Calcein AM, these assays detect viable cells exclusively. The quantity of […] Calcein AM corresponds to the number of vital cells in the culture.
Human T-lymphoblastic leukemia cell line CEM; promyelocytic HL-60 and monocytic U937 leukemias; breast carcinoma cell lines MCF-7, BT549, MDA-MB-231; glioblastoma U87MG cells; cervical carcinoma cells HELA; sarcoma cells U2OS and Saos2; hepatocellular carcinoma HepG2; mouse fibroblasts NIH3T3; mouse immortalized bone marrow macrophages B2.4 and B10A.4; P388D1 and L1210 leukemia; B16 and B16F10 melanomas; human osteosarcoma HOS; human myeloid leukemia K-562; human skin melanoma G-361 were used for routine screening of compounds. The cells were maintained in Nunc/Corning 80 cm^2 plastic tissue culture flasks and cultured in cell culture medium (DMEM with 5 g/l glucose, 2 mM glutamine, 100 U/mL penicillin, 100 μg/mL streptomycin, 10% fetal calf serum and sodium bicarbonate).
The cell suspensions that were prepared and diluted according to the particular cell type and the expected target cell density (2.500-30.000 cells per well based on cell growth characteristics) were added by pipette ([…]) into 96/well microtiter plates. Inoculates were allowed a pre-incubation period of 24 hours at 37° C. and 5% CO2 for stabilisation. Four-fold dilutions of the intended test concentration were added at time zero in 20 μl aliquots to the microtiter plate wells. Usually, the compound tested was evaluated at six 4-fold dilutions. In routine testing, the highest well concentration was 100 μM, but it can be the matter of change dependent on the agent. All drug concentrations were examined in duplicates. Incubations of cells with the tested compounds lasted for 72 hours at 37° C., in 5% CO2 atmosphere and 100% humidity. At the end of the incubation period, the cells were assayed by using Calcein AM. Ten microliters of the stock solution were pipetted into each well and incubated for 1 hour. Fluorescence (FD) was measured with the Labsystem FIA Reader Fluoroscan Ascent (UK). The tumour cell survival (GI50) was calculated using the following equitation: TCS=(FDdrug exposed well/mean FDeontrol wells)×100%. The GI50 value, the drug concentration lethal to 50% of the tumour cells, was calculated from the obtained dose response curves.
Zero cytotoxicity of the novel compounds is the basic prerequisite for agricultural and tumor-unrelated applications. The cytoxicity of the novel compounds was tested on a panel of cell lines of different histogenetic and species origin (Table 9). We show herein that equal activities were found in all tumour cell lines tested, however, the non-malignant cells, e.g. NIH3T3 fibroblasts and normal human lymphocytes, were resistant to 2,6-disubstituted purine ribosides induced cytotoxicity. The compounds listed in Tab. 9 can be divided into 2 groups. The first group contains “classical cytokinins” represented by 6-substituted purine ribosides (which are known in the prior art). The second group contains the novel 2,6-disubstituted derivatives of these compounds. […] GI50 for NIH3T3 fibroblasts and normal human lymphocytes was always higher than 100 μM. The novel derivatives show no toxicity to normal and tumour cells in concentrations about 100 μM and thus are more suitable for agricultural applications than “classical cytokinins” (6-substituted purine riboside derivatives).

The structures appear in SMILES notation.

On to `COc1cccc(CNc2nc(Cl)nc3c2ncn3C2OC(CO)C(O)C2O)c1O` (centres unmarked) [Compound 10, 2-Chloro-6-(2-hydroxy-3-methoxybenzylamino)purine riboside], for which the IC50 – broadly, the midpoint of a concentration-inhibition curve – in the experiment with neutrophils amounted to 3000 nM. The concentration for 50% growth inhibition (GI50) – broadly, the concentration giving 50% growth inhibition – in experiment [1] is greater than 100000 nM.

The values are drawn from patent US20140066394A1, “Substituted 6-(Benzylamino) Purine Riboside Derivatives, Use Thereof and Compositions Containing These Derivatives” (Biopatterns, S.R.O, priority 2009, published 2014).
